Assay results from PMC12440824, “Chimeric deubiquitinase engineering reveals structural basis for specific inhibition of the mitophagy regulator USP30” (Nature Structural & Molecular Biology, 2025).
Where two headings read alike, the source gives them in different places.

Experiments:
USP30^ch3 L328F = assay: Thermal shift assay, USP30 ch3 L328F; type: binding, human; settings: 20 μM inhibitor; for ΔTm, USP30^ch3 L328F: replicates or average
Protocol: (§1) The thermal stability of USP30 constructs and effects of either inhibitor or Ub-PA binding were determined by thermal shift assays. Inhibitor, Ub-PA and SYPRO orange dye (Sigma, 5,000× stock in DMSO) solutions were prepared in 1× PBS, 4 mM DTT. Inhibitor/Ub-PA was prediluted to 100 µM, and SYPRO orange dye was prediluted to 50× (from the commercial stock). Mixtures of protein, inhibitor/Ub-PA and SYPRO were prepared with inhibitor/Ub-PA at a final concentration of 20 μM, SYPRO at a final concentration of 4× and protein at a final concentration of 2 μM for c1, 4 μM for ch1, ch4 and c2 and 3 μM for ch2 and ch3. Samples were added in triplicate to a white 96-well PCR plate (Bio-Rad). Fluorescence intensity was monitored (excitation, 450–490 nm; emission, 560–580 nm) at a gradient of 20–90 °C (increment of 0.3 °C, hold for 5 s before read) on a real-time PCR system (Bio-Rad).

USP30^c1 = target: T1, USP30^c1 (Homo sapiens, UniProt Q70CQ3, DEL179-208/DEL211-214/DEL358-428/F348D/I353E/M350S/N216S/S215G); assay: Thermal shift assay, USP30 c1; type: binding; settings: for Tm in presence of compound, USP30^c1: 20 μM inhibitor
T1 sequence (Q70CQ3 with tags, fused parts or gaps DEL179-208/DEL211-214/S215G/N216S/F348D/M350S/I353E/DEL358-428): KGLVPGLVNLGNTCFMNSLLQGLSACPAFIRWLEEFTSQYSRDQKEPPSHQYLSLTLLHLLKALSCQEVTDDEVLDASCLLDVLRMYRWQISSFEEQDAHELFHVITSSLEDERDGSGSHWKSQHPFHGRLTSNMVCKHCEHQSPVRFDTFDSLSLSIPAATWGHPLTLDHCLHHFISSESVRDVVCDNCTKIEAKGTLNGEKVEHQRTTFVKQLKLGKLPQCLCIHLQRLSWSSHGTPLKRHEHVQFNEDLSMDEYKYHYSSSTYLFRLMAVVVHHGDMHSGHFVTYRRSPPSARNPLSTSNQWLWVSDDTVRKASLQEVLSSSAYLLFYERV
Protocol: as §1

USP30^ch3 I154A = USP30^ch3 I154A (Homo sapiens, UniProt Q70CQ3, I154A, form not given); assay: Thermal shift assay, USP30 ch3 I154A; type: binding; settings: 20 μM inhibitor
Sequence of USP30^ch3 I154A (Q70CQ3 64-502 I154A, form open): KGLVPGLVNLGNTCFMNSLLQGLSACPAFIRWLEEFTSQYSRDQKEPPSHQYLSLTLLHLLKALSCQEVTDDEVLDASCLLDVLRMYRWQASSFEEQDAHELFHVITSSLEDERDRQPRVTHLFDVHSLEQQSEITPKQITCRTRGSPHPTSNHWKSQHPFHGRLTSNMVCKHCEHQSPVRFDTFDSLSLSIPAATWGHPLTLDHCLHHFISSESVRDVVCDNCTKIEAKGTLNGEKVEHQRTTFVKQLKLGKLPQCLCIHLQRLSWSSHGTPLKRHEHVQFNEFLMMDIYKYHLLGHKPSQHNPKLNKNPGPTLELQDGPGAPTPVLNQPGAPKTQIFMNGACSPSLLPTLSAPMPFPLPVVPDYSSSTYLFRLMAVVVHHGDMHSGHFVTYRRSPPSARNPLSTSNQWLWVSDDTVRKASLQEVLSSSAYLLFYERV
Sequence of USP30^ch3 I154A (P54578 248-318 partner, form open): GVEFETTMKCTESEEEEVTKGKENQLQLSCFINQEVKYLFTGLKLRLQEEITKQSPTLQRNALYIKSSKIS
Sequence of USP30^ch3 I154A (Q9P2H5 821-846 partner, form open): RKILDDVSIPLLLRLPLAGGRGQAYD
Protocol: as §1

USP30^ch1 = USP30^ch1 (Homo sapiens, UniProt Q70CQ3); assay: Thermal shift assay, USP30 ch1; type: binding; settings: 20 μM inhibitor
Sequence of USP30^ch1 (Q70CQ3 64-502): as the sequence (Q70CQ3 64-502 I154A, form open) above, with A91I counted along it
Sequence of USP30^ch1 (Q93009 325-395 partner): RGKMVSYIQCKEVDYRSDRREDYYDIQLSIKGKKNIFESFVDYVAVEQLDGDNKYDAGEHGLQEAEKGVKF
Protocol: as §1

[1] = Solubility in aqueous buffers (observation during crystallization); type: physicochemical
[2] = tested on: T2, Flag-tagged, full-length USP30 (wild type) in HEK293 cells; assay: Cellular ubiquitin probe competition, overexpressed Flag-tagged full-length USP30 wild type; type: cell-based, human; settings: 2 µM compound, 2 h; HA-Ub-PA probe in lysate
T2 construct: C-terminally Flag-tagged human USP30 (1–517) was used for transient transfection; expressed in transfected cells; host or cells: HEK293, transient transfection of a pOPINE vector
Protocol: HEK293 cells (8 × 10^5 cells per well) were seeded in six-well plates and cultivated for 24 h. PEI transfecting reagent (Polysciences) was pre-incubated for 10 min with the vectors in 200 μl Opti-MEM medium (2 µg DNA per well). Cells were transfected and incubated for 48 h. Following the treatment with either compounds or DMSO in fresh medium for an additional 2 h, cells were processed as described below. Cells were seeded at 8 × 10^5 cells per well and grown for 48 h. […] The medium was aspirated, and cells were washed once with ice-cold PBS. Cells were collected by scraping in lysis buffer (150 mM NaCl, 250 mM sucrose, 50 mM Tris, pH 8.0, 5 mM TCEP) supplemented with EDTA-free complete protease inhibitor cocktail and benzonase. Suspended cells were homogenized by 12 bursts of a microtip probe sonicator (Branson Sonifier 450) at 10% amplitude with pulses of 1 s on ice. Remaining cell debris was separated by centrifugation (20,817g, 5 min, 4 °C). […] After incubation for 10 min at room temperature, reactions were quenched by the addition of 4× reducing LDS sample buffer. Samples were resolved by SDS–PAGE and further analyzed via western blot. Using a Trans-Blot Turbo system (Bio-Rad, 1.0 A, 25 V, 30 min), proteins were blotted onto a nitrocellulose membrane. […]

SMILES	Tm in presence of compound, USP30^ch3 L328F (USP30^ch3 L328F)	ΔTm, USP30^ch3 L328F (USP30^ch3 L328F)	Tm in presence of compound, USP30^c1 (USP30^c1)	ΔTm at 20 µM (USP30^c1; read-out: ΔTm, USP30^c1)	Tm in presence of compound, USP30^ch3 I154A (USP30^ch3 I154A)	Tm in presence of compound, USP30^ch1 (USP30^ch1)	solubility in aqueous buffers [1]	probe labeling of wild-type Flag-USP30 [2]	ΔTm at 20 µM (USP30^c1; read-out: ΔTm, column headed USP30c1 in sheet Fig. 4f)
CC(C)(C)NS(=O)(=O)c1ccc(NC(=O)[C@H](Cc2ccccc2)NC(=O)c2ccc(F)cc2)cc1 [compound 39]	58.5 °C	1.5 °C	58.9 °C	7.8 °C	59.0 °C	56.1 °C	poor solubility	abolished probe labeling	–
CC(C)(CO)NS(=O)(=O)c1ccc(NC(=O)[C@H](Cc2ccccc2)NC(=O)c2ccc(F)cc2)cc1 [NK036]	58.2 °C	1.2 °C	58.3 °C	7.2 °C	59.0 °C	55.2 °C	improved	abolished probe labeling	6.1 °C
